# Like-named read-outs stand apart in the source and are kept apart here.
# Key:
# CDK9/CycT1 = target: T1, CDK9/CycT1 (Homo sapiens, UniProt P50750); test: CDK9/CycT1 high ATP kinase assay (TR-FRET, 2 mM ATP); assay type: biochemical; settings: Method 1b
# T1 construct: Recombinant full-length His-tagged human CDK9 and CycT1; His; purchased Invitrogen PV4131; host or cells: insect cells
# Method: 1b. CDK9/CyeT1 High ATP Kinase Assay
# CDK9/CycT1-inhibitory activity of compounds of the present invention at a high ATP concentration after preincubation of enzyme and test compounds was quantified employing the CDK9/CycT1 TR-FRET assay as described in the following paragraphs.
# Recombinant full-length His-tagged human CDK9 and CycT1, expressed in insect cells and purified by Ni-NTA affinity chromatography, were purchase from Invitrogen (Cat. No PV4131). As substrate for the kinase reaction biotinylated peptide biotin-Ttds-[…] (C-terminus in amid form) was used which can be purchased e.g. form the company JERINI peptide technologies (Berlin, Germany). For the assay 50 nl of a 100 fold concentrated solution of the test compound in DMSO was pipetted into a black low volume 384 well microtiter plate (Greiner Bio-One, Frickenhausen, Germany), 2 μl of a solution of CDK9/CycT1 in aqueous assay buffer [50 mM Tris/HCl pH 8.0, 10 mM MgCl2, 1.0 mM dithiothreitol, 0.1 mM sodium ortho-vanadate, 0.01% (v/v) Nonidet-P40 (Sigma)] were added and the mixture was incubated for 15 min at 22° C. to allow pre-binding of the test compounds to the enzyme before the start of the kinase reaction. Then the kinase reaction was started by the addition of 3 μl of a solution of adenosine-tri-phosphate (ATP, 3.3 mM=>final conc. in the 5 μl assay volume is 2 mM) and substrate (1.67 μM=>final conc. in the 5 μl assay volume is 1 μM) in assay buffer and the resulting mixture was incubated for a reaction time of 25 min at 22° C.
# The resulting mixture was incubated 1 h at 22° C. to allow the formation of complex between the phosphorylated biotinylated peptide and the detection reagents. Subsequently the amount of phosphorylated substrate was evaluated by measurement of the resonance energy transfer from the Eu-chelate to the streptavidine-XL. Therefore, the fluorescence emissions at 620 nm and 665 nm after excitation at 350 nm was measured in a HTRF reader, e.g. a Rubystar (BMG Labtechnologies, Offenburg, Germany) or a Viewlux (Perkin-Elmer). The ratio of the emissions at 665 nm and at 622 nm was taken as the measure for the amount of phosphorylated substrate.
# [1] = system: HeLa-MaTu-ADR, multidrug-resistant human cervical carcinoma cells; test: Proliferation assay, HeLa-MaTu-ADR (crystal violet); assay type: cell-based; settings: 4 days, read-out: Inhibition of HeLa-MaTu-ADR cell proliferation IC50
# Method: (§1) Cultivated tumour cells (HeLa, human cervical tumour cells, ATCC CCL-2; NCI-H460, human non-small cell lung carcinoma cells, ATCC HTB-177; A2780, human ovarian carcinoma cells, ECACC #93112519; DU 145, hormone-independent human prostate carcinoma cells, ATCC HTB-81; HeLa-MaTu-ADR, multidrug-resistant human cervical carcinoma cells, EPO-GmbH Berlin; Caco-2, human colorectal carcinoma cells, ATCC HTB-37; B16F10, mouse melanoma cells, ATCC CRL-6475) were plated at a density of 5,000 cells/well (DU145, HeLa-MaTu-ADR), 3,000 cells/well (NCI-H460, HeLa), 2,500 cells/well (A2780), 1,500 cells/well (Caco-2), or 1,000 cells/well (B16F10) in a 96-well multititer plate in 200 μL of their respective growth medium supplemented 10% fetal calf serum. After 24 hours, the cells of one plate (zero-point plate) were stained with crystal violet (see below), while the medium of the other plates was replaced by fresh culture medium (200 μl), to which the test substances were added in various concentrations (0 μM, as well as in the range of 0.001-10 μM; the final concentration of the solvent dimethyl sulfoxide was 0.5%). The cells were incubated for 4 days in the presence of test substances. Cell proliferation was determined by staining the cells with crystal violet: the cells were fixed by adding 20 μl/measuring point of an 11% glutaric aldehyde solution for 15 minutes at room temperature. After three washing cycles of the fixed cells with water, the plates were dried at room temperature. The cells were stained by adding 100 μl/measuring point of a 0.1% crystal violet solution (pH 3.0). After three washing cycles of the stained cells with water, the plates were dried at room temperature. The dye was dissolved by adding 100 μl/measuring point of a 10% acetic acid solution. The extinction was determined by photometry at a wavelength of 595 nm. The change of cell number, in percent, was calculated by normalization of the measured values to the extinction values of the zero-point plate (=0%) and the extinction of the untreated (0 μm) cells (=100%). The IC50 values (inhibitory concentration at 50% of maximal effect) were determined by means of a 4 parameter fit. Non-adherent MOLM-13 human acute myeloid leukemia cells (DSMZ ACC 554) were seeded at a density of 5,000 cells/well in a 96-well multititer plate in 100 μL of growth medium supplemented 10% fetal calf serum. After 24 hours, cell viability of one plate (zero-point plate) was determined with the Cell Titre-Glo Luminescent Cell Viability Assay (Promega), while 50 μL of test compound containing medium was added to the wells of the other plates (final concentrations in the range of 0.001-10 μM and DMSO controls; the final concentration of the solvent dimethyl sulfoxide was 0.5%). Cell viability was assessed after 72-hour exposure with the Cell Titre-Glo Luminescent Cell Viability Assay (Promega).
# [2] = system: NCI-H460, human non-small cell lung carcinoma cells; test: Proliferation assay, NCI-H460 (crystal violet); assay type: cell-based; settings: NCI-H460, 4 days, read-out: Inhibition of NCI-H460 cell proliferation IC50
# Method: as §1
# T1 sequence (P50750 whole entry): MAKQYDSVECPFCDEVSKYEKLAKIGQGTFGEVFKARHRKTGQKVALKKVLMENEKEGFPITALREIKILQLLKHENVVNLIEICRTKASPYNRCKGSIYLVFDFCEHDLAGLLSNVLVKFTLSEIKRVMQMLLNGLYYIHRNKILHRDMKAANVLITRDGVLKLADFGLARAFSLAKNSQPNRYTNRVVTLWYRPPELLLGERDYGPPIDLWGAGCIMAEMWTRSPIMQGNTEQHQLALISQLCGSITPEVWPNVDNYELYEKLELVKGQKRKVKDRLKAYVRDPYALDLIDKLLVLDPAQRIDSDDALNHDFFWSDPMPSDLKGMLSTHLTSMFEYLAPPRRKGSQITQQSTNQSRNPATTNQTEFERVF
# T1 sequence (O60563 whole entry partner): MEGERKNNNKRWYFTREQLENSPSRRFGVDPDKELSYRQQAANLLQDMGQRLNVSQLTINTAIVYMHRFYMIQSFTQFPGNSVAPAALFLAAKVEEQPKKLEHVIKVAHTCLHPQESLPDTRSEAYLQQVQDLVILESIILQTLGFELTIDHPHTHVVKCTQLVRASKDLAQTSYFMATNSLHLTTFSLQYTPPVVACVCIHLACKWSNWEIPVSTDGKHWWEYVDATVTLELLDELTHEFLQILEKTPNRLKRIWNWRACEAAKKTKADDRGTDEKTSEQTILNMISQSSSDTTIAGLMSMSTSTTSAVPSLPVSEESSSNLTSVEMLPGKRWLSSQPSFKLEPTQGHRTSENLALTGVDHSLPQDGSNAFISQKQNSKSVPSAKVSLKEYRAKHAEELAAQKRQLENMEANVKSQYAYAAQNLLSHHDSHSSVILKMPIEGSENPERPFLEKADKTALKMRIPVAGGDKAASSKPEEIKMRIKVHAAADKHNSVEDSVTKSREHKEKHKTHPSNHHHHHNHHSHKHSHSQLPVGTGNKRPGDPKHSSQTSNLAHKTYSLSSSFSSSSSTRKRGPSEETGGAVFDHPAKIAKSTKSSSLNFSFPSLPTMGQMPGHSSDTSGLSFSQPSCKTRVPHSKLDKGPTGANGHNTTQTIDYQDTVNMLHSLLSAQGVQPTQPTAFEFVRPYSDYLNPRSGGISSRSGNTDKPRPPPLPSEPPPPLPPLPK
IC50 (CDK9/CycT1),"IC50 ([1]; Homo sapiens, 96 h)","IC50 ([2]; Homo sapiens, NCI-H460, 96 h)",IC50 [2],IC50 [1],Structure (SMILES)
4 nM,35 nM,110 nM,,,"COc1cc(F)ccc1-c1cc(Nc2cc(CS(C)(=O)=NC(=O)C(F)(F)F)cc(F)n2)ncc1F (racemic) [Example 18, (rac)-2,2,2-Trifluoro-N-{[(2-fluoro-6-{[5-fluoro-4-(4-fluoro-2-methoxyphenyl)pyridin-2-yl]amino}pyridin-4-yl)methyl](methyl)oxido-λ^6-sulfanylidene}acetamide]"
2 nM,30 nM,33 nM,,,"COc1cc(F)ccc1-c1cc(Nc2cc(CS(C)(=N)=O)cc(C(F)(F)F)n2)ncc1F (racemic) [Example 21, (rac)-5-Fluoro-4-(4-fluoro-2-methoxyphenyl)-N-{4-[(S-methylsulfonimidoyl)methyl]-6-(trifluoromethyl)pyridin-2-yl}pyridin-2-amine]"
4 nM,49 nM,120 nM,,,"CCOc1cc(F)ccc1-c1cc(Nc2cc(CS(C)(=N)=O)cc(F)n2)ncc1F (racemic) [Example 26, (rac)-4-(2-Ethoxy-4-fluorophenyl)-5-fluoro-N-{6-fluoro-4-[(S-methylsulfonimidoyl)methyl]pyridin-2-yl}pyridin-2-amine]"
22 nM,110 nM,120 nM,,,"CCOc1cc(F)ccc1-c1cc(Nc2cc(CS(C)(=O)=NC(=O)C(F)(F)F)cc(F)n2)ncc1F (racemic) [Example 27, (rac)-N-{[(2-{[4-(2-Ethoxy-4-fluoro-phenyl)-5-fluoropyridin-2-yl]amino}-6-fluoropyridin-4-yl)methyl]-(methyl)oxido-λ^6-sulfanylidene}-2,2,2-trifluoroacetamide]"
5 nM,74 nM,120 nM,,,"CCS(=N)(=O)Cc1ccnc(Nc2cc(-c3ccc(F)cc3OC)c(F)cn2)c1 (racemic) [Example 30, (rac)-N-{4-[(S-Ethylsulfonimidoyl)-methyl]pyridin-2-yl}-5-fluoro-4-(4-fluoro-2-methoxyphenyl)pyridin-2-amine]"
1 nM,32 nM,39 nM,,,"COc1cc(F)ccc1-c1cc(Nc2cc(CS(C)(=O)=NC#N)ccn2)ncc1F (single isomer, unassigned) [Example 10, {[(2-{[5-Fluoro-4-(4-fluoro-2-methoxyphenyl)pyridin-2-yl]amino}pyridin-4-yl)methyl](methyl)oxido-λ^6-sulfanylidene}cyanamide]"
19 nM,64 nM,110 nM,,,"COc1cc(F)ccc1-c1cc(Nc2cc(CS(C)(=N)=O)cc(F)n2)ncc1F (single isomer, unassigned; (+)) [Example 19, (+)-5-Fluoro-4-(4-fluoro-2-methoxyphenyl)-N-{6-fluoro-4-[(S-methylsulfonimidoyl)methyl]pyridin-2-yl}pyridin-2-amine]"
1 nM,30 nM,34 nM,,,"COc1cc(F)ccc1-c1cc(Nc2cc(CS(C)(=N)=O)cc(C(F)(F)F)n2)ncc1F (single isomer, unassigned; (+)) [Example 22, (+)-5-Fluoro-4-(4-fluoro-2-methoxyphenyl)-N-{4-[(S-methylsulfonimidoyl)methyl]-6-(trifluoromethyl)pyridin-2-yl}pyridin-2-amine]"
27 nM,30 nM,33 nM,,,"COc1cc(F)ccc1-c1cc(Nc2cc(CS(C)(=O)=NC(=O)C(F)(F)F)cc(C(F)(F)F)n2)ncc1F (single isomer, unassigned; (+)) [Example 24, (+)-2,2,2-Trifluoro-N-[{[2-{[5-fluoro-4-(4-fluoro-2-methoxyphenyl)pyridin-2-yl]amino}-6-(trifluoromethyl)-pyridin-4-yl]methyl}(methyl)oxido-λ^6-sulfanylidene]acetamide]"
4 nM,120 nM,190 nM,,,"CCOc1cc(F)ccc1-c1cc(Nc2cc(CS(C)(=N)=O)cc(F)n2)ncc1F (single isomer, unassigned; (+)) [Example 28, (+)-4-(2-Ethoxy-4-fluorophenyl)-5-fluoro-N-{6-fluoro-4-[(S-methylsulfonimidoyl)methyl]pyridin-2-yl}pyridin-2-amine]"
2 nM,53 nM,,100 nM,,"COc1cc(F)ccc1-c1cc(Nc2cc(CS(C)(=N)=O)cc(C)n2)ncc1F (single isomer, unassigned; (+)) [Example 32, (+)-5-Fluoro-4-(4-fluoro-2-methoxyphenyl)-N-{6-methyl-4-[(S-methylsulfonimidoyl)methyl]pyridin-2-yl}pyridin-2-amine]"
1 nM,,,100 nM,38 nM,"COc1cc(F)ccc1-c1cc(Nc2cc(CS(C)(=N)=O)cc(F)n2)ncc1F (single isomer, unassigned; (-)) [Example 20, (−)-5-Fluoro-4-(4-fluoro-2-methoxyphenyl)-N-{6-fluoro-4-[(S-methylsulfonimidoyl)methyl]pyridin-2-yl}pyridin-2-amine]"
2 nM,,,35 nM,30 nM,"COc1cc(F)ccc1-c1cc(Nc2cc(CS(C)(=N)=O)cc(C(F)(F)F)n2)ncc1F (single isomer, unassigned; (-)) [Example 23, (−)-5-Fluoro-4-(4-fluoro-2-methoxyphenyl)-N-{4-[(S-methylsulfonimidoyl)methyl]-6-(trifluoromethyl)pyridin-2-yl}pyridin-2-amine]"
13 nM,,,36 nM,30 nM,"COc1cc(F)ccc1-c1cc(Nc2cc(CS(C)(=O)=NC(=O)C(F)(F)F)cc(C(F)(F)F)n2)ncc1F (single isomer, unassigned; (-)) [Example 25, (−)-2,2,2-Trifluoro-N-[{[2-{[5-fluoro-4-(4-fluoro-2-methoxyphenyl)pyridin-2-yl]amino}-6-(trifluoromethyl)-pyridin-4-yl]methyl}(methyl)oxido-λ^6-sulfanylidene]acetamide]"
4 nM,,,150 nM,81 nM,"CCOc1cc(F)ccc1-c1cc(Nc2cc(CS(C)(=N)=O)cc(F)n2)ncc1F (single isomer, unassigned; (-)) [Example 29, (−)-4-(2-Ethoxy-4-fluorophenyl)-5-fluoro-N-{6-fluoro-4-[(S-methylsulfonimidoyl)methyl]pyridin-2-yl}pyridin-2-amine]"

# Reference: patent US9650340B2, “5-fluoro-N-(pyridin-2-yl)pyridin-2-amine derivatives containing a sulfoximine group” (BAYER PHARMA AKTIENGESELLSCHAFT, priority 2012, dated 2017)
